{"source": "patent US8614068B2", "about": "“Process for producing hepcidin” (Hellenic Pasteur Institute, priority 2007, dated 2013)", "key": {"ferroportin (FPN1) [1]": {"target": "T1, ferroportin (FPN1) (Mus musculus, UniProt Q9JHI9)", "T1 construct": "endogenous in cells; host or cells: RAW 264.7 murine macrophages", "T1 sequence (Q9JHI9 1-570)": "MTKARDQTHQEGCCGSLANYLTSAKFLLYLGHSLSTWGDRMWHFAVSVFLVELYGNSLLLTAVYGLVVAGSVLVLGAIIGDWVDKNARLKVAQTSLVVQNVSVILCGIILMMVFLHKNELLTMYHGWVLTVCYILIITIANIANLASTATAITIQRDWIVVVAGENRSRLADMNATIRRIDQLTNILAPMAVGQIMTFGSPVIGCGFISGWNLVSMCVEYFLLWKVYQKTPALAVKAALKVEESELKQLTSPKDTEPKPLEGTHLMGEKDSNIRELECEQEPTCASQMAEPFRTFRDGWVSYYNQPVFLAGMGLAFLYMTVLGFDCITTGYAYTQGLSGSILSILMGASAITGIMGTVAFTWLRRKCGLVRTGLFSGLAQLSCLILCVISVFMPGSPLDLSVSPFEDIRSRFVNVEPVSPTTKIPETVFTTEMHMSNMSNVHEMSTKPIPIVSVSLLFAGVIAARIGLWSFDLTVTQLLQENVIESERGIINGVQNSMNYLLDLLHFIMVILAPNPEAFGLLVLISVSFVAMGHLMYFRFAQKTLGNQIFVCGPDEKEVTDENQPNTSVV", "assay": "Western blot of ferroportin expression in macrophages", "type": "cell-based, murine", "experimental": "A, RAW 264.7 macrophages were treated with 11 μM and 10 μM of synthetic hepcidin-25 (having the sequence of SEQ ID NO. 2) and Hep-25His (having the sequence of SEQ ID NO. 6) for 4 h at 37° C. or with PBS as negative control. Cell lysates were subjected to 8% SDS PAGE and Western Blot with antibodies against TfR1, Ferroportin and actin as loading control. B, The signal density of ferroportin, TfR1 and actin protein bands from two independent experiments were quantified by densitometry and their intensity relative to actin was calculated. […] Hep25-His, negative peptide and PBS was incubated with Raw 264.7 macrophages, followed by cross-linking with DSS. Cell lysates were incubated with Ni2-NTA and eluates were analyzed by Western blot using anti-FPN1 Ab. […] HEK293-Fpn cells were induced with ponasterone for 24 h and then treated with Hep25-His or synthetic hepcidin 25 (s. Hep25) for 3 h. Fluorescence was visualized with a Leica TCS confocal microscope.\nWestern blotting—1×10^6 cells (RAW 264.7, THP-1 or J774) were plated in […] plates and after 12-20 h cells were treated with hepcidins in serum-free DMEM for 4 h, at 37° C. Afterwards, cells were re-suspended in lysis buffer (1% Triton, 25 mM Hepes pH 7.4, 150 mM NaCl, 10% Glycerol, 5 mM EDTA, 0.5 mM PMSF, protein inhibitors (Roche, Mannheim, Germany) and quantified by Bradford assay (Biorad, Hercules, Calif.). 30 μg of cell lysate was analyzed on 8% SDS-PAGE. Proteins were transferred to Hybond C nitrocellulose membrane (Amersham Biosciences, Piscataway, N.J.) and the membranes were incubated with the primary antibodies rabbit anti-ferroportin (Alpha Diagnostics, San Antonio, Tex.), mouse anti-TfR1 (Zymed, Invitrogen, Carlsbad, Calif.) and mouse anti-β actin (Santa Cruz Biotech, Santa Cruz, Calif.), in a dilution of 1:1000, overnight at 4° C. After washing, the membranes were incubated with anti-rabbit and anti-mouse secondary antibodies conjugated with HRP, in a dilution of 1:5000 (DakoCytomation, Carpinteria, Calif.), for 1 h at room temperature. Specific signal was detected with a chemiluminescence assay kit (ECL, Amersham Biosciences, Piscataway, N.J.). The bands were quantified by densitometry using the Quantity-One (Biorad, Hercules, Calif.) software. Data are shown as means±SD. Statistical analysis was performed by student t-Test."}, "ferroportin (FPN1) [2]": {"target": "T1, ferroportin (FPN1)", "assay": "Western blot of ferroportin expression in macrophages", "type": "cell-based, murine", "details": "RAW 264.7, 1 μM, 4 h at 37° C."}, "E. coli strain ML35": {"test_system": "E. coli strain ML35", "details": "at 30 μM", "description": "Antimicrobial activity of recombinant tagged hepcidins. E. coli strain ML35 was subjected to CFU assay in order to determine the antimicrobial activity of synthetic hepcidin 25 (s. Hep25) having the sequence os SEQ ID NO. 2, Hep-25His having the sequence of SEQ ID NO. 6, Hep-25MycHis having the sequence of SEQ ID NO. 8, Hep-20MycHis having the sequence of SEQ ID NO. 7 and negative peptide having the sequence SEQ ID NO. 9 at the concentrations indicated for 2 h at 37° C. Sodium phosphate buffer was used as negative control.\nAntimicrobial assay—All purified recombinant hepcidins were tested for antibacterial activity against E. coli ML35 and BL21(DE) is a CFU assay (Porter E. M., van Dam E., Valore E. V., Ganz T., Broad-spectrum antimicrobial activity of human intestinal defensin 5, Infect. Immun. 65 (1997) 2396-2401.). Bacterial cell cultures were grown to OD600=0.2 (5×10^7 cfu/ml) and resuspended to a final concentration of 10^6 cfu/ml in 20mM sodium phosphate buffer, pH7.4. Various concentrations of peptides were added to a final volume of 100 μl and after incubation for 2 h at 37° C., surviving cells were plated in triplicates to LB/agar plates.\nAntimicrobial activity of recombinant hepcidins—The colony forming unit assay (E. M. Porter, E. van Dam, E. V. Valore, T. Ganz, Broad-spectrum antimicrobial activity of human intestinal defensin 5, Infect. Immun. 65 (1997) 2396-2401) was used to determine the antimicrobial activity of the purified recombinant hepcidin forms against the E. coli strain, ML35. […] Surviving microbes were counted following incubation with various concentrations of recombinant hepcidin preparations, synthetic hepcidin or negative peptide for 2 h at 37° C."}}, "data": [{"substance": "hepcidin-25His [Hep-25His]", "values": [{"measurement": "reduction of FPN1 in comparison to untreated cells", "setting": "ferroportin (FPN1) [1]; RAW 264.7, 10 μM, 4 h at 37° C.", "value": "48±3", "unit": "%"}, {"measurement": "decrease in ferroportin levels", "setting": "ferroportin (FPN1) [1]; RAW 264.7 macrophages", "value": "~50", "unit": "%"}, {"measurement": "effect of higher concentrations on FPN1 and TfR1", "setting": "ferroportin (FPN1) [1]; concentrations higher than 10 μM, data not shown", "value": "did not have a stronger effect"}, {"measurement": "reduction of FPN1 in comparison to untreated cells", "setting": "ferroportin (FPN1) [2]", "value": "37%±7"}, {"measurement": "reduction of the number of surviving bacteria", "setting": "E. coli strain ML35", "value": 1000, "unit": "fold"}]}]}
